Columns and labels:
corn = assay: Test B pre/postemergence corn; type: in vivo, Zea mays
Summary of the method: (§1)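 Test chemicals in a non-phytotoxic solvent mixture with surfactant were sprayed preemergence onto planted seeds and postemergence onto plants 2 to 18 cm tall (1- to 4-leaf stage). After twelve to sixteen days in a greenhouse, injury was visually rated against untreated controls from 0 (no effect) to 10 (complete control).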

blackgrass = assay: Test B pre/postemergence blackgrass; type: in vivo, Alopecurus myosuroides
Summary of the method: as §1

purple nutsedge = assay: Test B pre/postemergence purple nutsedge; type: in vivo, Cyperus rotundus; conditions: Postemergence
Summary of the method: as §1

giant foxtail = assay: Test B pre/postemergence giant foxtail; type: in vivo, Setaria faberii
Summary of the method: as §1

pigweed = assay: Test B pre/postemergence pigweed; type: in vivo, Amaranthus retroflexus
Summary of the method: as §1

wild oat = assay: Test B pre/postemergence wild oat; type: in vivo, Avena fatua
Summary of the method: as §1

soybean = assay: Test B pre/postemergence soybean; type: in vivo, Glycine max
Summary of the method: as §1

duck salad = assay: Test B flood test duck salad; type: in vivo, Heteranthera limosa
Summary of the method: (§2)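 Read-out is a visual response score from 0 (no effect) to 10 (complete control), assigned by comparison with untreated controls. Treatment was applied at the 2-leaf stage, and plants stayed in the greenhouse for twelve to sixteen days before scoring.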

velvetleaf = assay: Test B pre/postemergence velvetleaf; type: in vivo, Abutilon theophrasti
Summary of the method: as §1

rice = assay: Test B flood test rice; type: in vivo, Oryza sativa
Summary of the method: as §2

rape = assay: Test B pre/postemergence rape; type: in vivo, Brassica napus
Summary of the method: as §1

bedstraw = assay: Test B pre/postemergence bedstraw; type: in vivo, Galium aparine
Summary of the method: as §1

morningglory = assay: Test B pre/postemergence morningglory; type: in vivo, Ipomoea hederacea
Summary of the method: as §1

surinam grass = assay: Test B pre/postemergence surinam grass; type: in vivo, Brachiaria decumbens
Summary of the method: as §1

wheat = assay: Test B pre/postemergence wheat; type: in vivo, Triticum aestivum
Summary of the method: as §1

crabgrass = assay: Test B pre/postemergence crabgrass; type: in vivo, Digitaria sanguinalis
Summary of the method: as §1

[1] = Preemergence, Rate 62 g/ha, scale of 0 to 10 where 0 is no effect and 10 is complete control
[2] = Preemergence, Rate 250 g/ha, scale of 0 to 10 where 0 is no effect and 10 is complete control
[3] = Preemergence, Rate 500 g/ha, scale of 0 to 10 where 0 is no effect and 10 is complete control
[4] = Rate 62 g/ha, Postemergence, scale of 0 to 10 where 0 is no effect and 10 is complete control
[5] = Rate 125 g/ha, Postemergence, scale 0 to 10
[6] = Rate 125 g/ha, Preemergence, scale of 0 to 10 where 0 is no effect and 10 is complete control
[7] = Rate 500 g/ha, Postemergence, scale 0 to 10
[8] = Rate 62 g/ha, headed Pre-emergence (flood test species), scale 0 to 10 (0 no effect, 10 complete control)
[9] = Rate 125 g/ha, Pre-emergence, flood test species, scale 0 to 10 where 0 is no effect and 10 is complete control
[10] = Rate 250 g/ha, Pre-emergence, flood-test species, scale 0 to 10, 0 is no effect, 10 is complete control
[11] = Rate 500 g/ha, Pre-emergence, flood test species, scale 0 to 10 (0 no effect, 10 complete control)

CC(=O)OCCCCn1c(=O)on(C(=O)N(c2ccc(F)cc2)C(C)C)c1=O [Compound 211]
Corn plant response rating (corn; [1]): 0
Corn plant response rating (corn; [2]): 0
Plant response rating, Corn (corn; [3]): 0
Corn plant response rating (corn; [4]): 0
Corn plant response rating (corn; [5]): 0
Corn plant response rating (corn; [6]): 0
Plant response rating (0 to 10; 0 is no effect, 10 is complete control), Corn (corn; Rate 250 g/ha, Postemergence): 0
Corn plant response rating (corn; [7]): 0
Blackgrass plant response rating (blackgrass; [1]): 6
Blackgrass plant response rating (blackgrass; [2]): 9
Plant response rating, Blackgrass (blackgrass; [3]): 9
Blackgrass plant response rating (blackgrass; [4]): 2
Blackgrass plant response rating (blackgrass; [5]): 3
Blackgrass plant response rating (blackgrass; [6]): 9
Plant response rating (0 to 10; 0 is no effect, 10 is complete control), Blackgrass (blackgrass; Rate 250 g/ha, Postemergence): 4
Blackgrass plant response rating (blackgrass; [7]): 4
Nutsedge plant response rating (purple nutsedge; Rate 62 g/ha, scale of 0 to 10 where 0 is no effect and 10 is complete control): 0
Nutsedge plant response rating (purple nutsedge; Rate 125 g/ha, scale 0 to 10): 0
Plant response rating (0 to 10; 0 is no effect, 10 is complete control), Nutsedge (purple nutsedge; Rate 250 g/ha): 0
Nutsedge plant response rating (purple nutsedge; Rate 500 g/ha, scale 0 to 10): 0
Giant foxtail plant response rating (giant foxtail; [1]): 3
Giant foxtail plant response rating (giant foxtail; [2]): 7
Plant response rating, Giant foxtail (giant foxtail; [3]): 8
Giant foxtail plant response rating (giant foxtail; [4]): 0
Giant foxtail plant response rating (giant foxtail; [5]): 0
Giant foxtail plant response rating (giant foxtail; [6]): 4
Plant response rating (0 to 10; 0 is no effect, 10 is complete control), Giant foxtail (giant foxtail; Rate 250 g/ha, Postemergence): 2
Giant foxtail plant response rating (giant foxtail; [7]): 3
Redroot pigweed plant response rating (pigweed; [1]): 0
Redroot pigweed plant response rating (pigweed; [2]): 3
Plant response rating, Redroot pigweed (pigweed; [3]): 7
Redroot pigweed plant response rating (pigweed; [4]): 2
Redroot pigweed plant response rating (pigweed; [5]): 4
Redroot pigweed plant response rating (pigweed; [6]): 0
Plant response rating (0 to 10; 0 is no effect, 10 is complete control), Redroot pigweed (pigweed; Rate 250 g/ha, Postemergence): 4
Redroot pigweed plant response rating (pigweed; [7]): 5
Wild oats plant response rating (wild oat; [1]): 0
Wild oats plant response rating (wild oat; [2]): 5
Plant response rating, Wild oats (wild oat; [3]): 5
Wild oats plant response rating (wild oat; [4]): 0
Wild oats plant response rating (wild oat; [5]): 0
Wild oats plant response rating (wild oat; [6]): 4
Plant response rating (0 to 10; 0 is no effect, 10 is complete control), Wild oats (wild oat; Rate 250 g/ha, Postemergence): 0
Soybean plant response rating (soybean; [1]): 0
Soybean plant response rating (soybean; [2]): 0
Plant response rating, Soybean (soybean; [3]): 0
Soybean plant response rating (soybean; [4]): 3
Soybean plant response rating (soybean; [5]): 4
Soybean plant response rating (soybean; [6]): 0
Plant response rating (0 to 10; 0 is no effect, 10 is complete control), Soybean (soybean; Rate 250 g/ha, Postemergence): 4
Soybean plant response rating (soybean; [7]): 4
Ducksalad plant response rating (duck salad; [8]): 0
Ducksalad plant response rating (duck salad; [9]): 0
Ducksalad plant response rating (duck salad; [10]): 0
Ducksalad plant response rating (duck salad; [11]): 0
Velvetleaf plant response rating (velvetleaf; [1]): 0
Velvetleaf plant response rating (velvetleaf; [2]): 0
Plant response rating, Velvetleaf (velvetleaf; [3]): 0
Velvetleaf plant response rating (velvetleaf; [4]): 0
Velvetleaf plant response rating (velvetleaf; [5]): 0
Velvetleaf plant response rating (velvetleaf; [6]): 0
Plant response rating (0 to 10; 0 is no effect, 10 is complete control), Velvetleaf (velvetleaf; Rate 250 g/ha, Postemergence): 1
Rice plant response rating (rice; [8]): 0
Rice plant response rating (rice; [9]): 0
Rice plant response rating (rice; [10]): 0
Rice plant response rating (rice; [11]): 0
Rape plant response rating (rape; [1]): 0
Rape plant response rating (rape; [2]): 0
Plant response rating, Rape (rape; [3]): 4
Rape plant response rating (rape; [4]): 2
Rape plant response rating (rape; [5]): 2
Rape plant response rating (rape; [6]): 0
Plant response rating (0 to 10; 0 is no effect, 10 is complete control), Rape (rape; Rate 250 g/ha, Postemergence): 2
Rape plant response rating (rape; [7]): 3
Bedstraw plant response rating (bedstraw; [1]): 0
Bedstraw plant response rating (bedstraw; [2]): 0
Plant response rating, Bedstraw (bedstraw; [3]): 10
Bedstraw plant response rating (bedstraw; [4]): 4
Bedstraw plant response rating (bedstraw; [5]): 7
Bedstraw plant response rating (bedstraw; [6]): 0
Bedstraw plant response rating (bedstraw; [7]): 8
Morningglory plant response rating (morningglory; [1]): 0
Morningglory plant response rating (morningglory; [2]): 0
Plant response rating, Morningglory (morningglory; [3]): 0
Morningglory plant response rating (morningglory; [4]): 4
Morningglory plant response rating (morningglory; [5]): 6
Morningglory plant response rating (morningglory; [6]): 0
Plant response rating (0 to 10; 0 is no effect, 10 is complete control), Morningglory (morningglory; Rate 250 g/ha, Postemergence): 6
Morningglory plant response rating (morningglory; [7]): 6
B. signalgrass plant response rating (surinam grass; [1]): 0
B. signalgrass plant response rating (surinam grass; Preemergence, Rate 250 g/ha, scale 0 to 10, 0 is no effect, 10 is complete control): 0
Plant response rating, B. signalgrass (surinam grass; [3]): 5
B. signalgrass plant response rating (surinam grass; [4]): 0
B. signalgrass plant response rating (surinam grass; Rate 125 g/ha, Postemergence, scale 0 (no effect) to 10 (complete control)): 0
B. signalgrass plant response rating (surinam grass; [6]): 0
Plant response rating (0 to 10; 0 is no effect, 10 is complete control), B. signalgrass (surinam grass; Rate 250 g/ha, Postemergence): 0
B. signalgrass plant response rating (surinam grass; Rate 500 g/ha, Postemergence, scale 0 to 10, 0 no effect, 10 complete control): 0
Wheat plant response rating (wheat; [1]): 0
Wheat plant response rating (wheat; [2]): 0
Plant response rating, Wheat (wheat; [3]): 5
Wheat plant response rating (wheat; [4]): 0
Wheat plant response rating (wheat; [5]): 0
Wheat plant response rating (wheat; [6]): 0
Plant response rating (0 to 10; 0 is no effect, 10 is complete control), Wheat (wheat; Rate 250 g/ha, Postemergence): 0
Crabgrass plant response rating (crabgrass; [1]): 0
Crabgrass plant response rating (crabgrass; [2]): 3
Plant response rating, Crabgrass (crabgrass; [3]): 3
Crabgrass plant response rating (crabgrass; [4]): 0
Crabgrass plant response rating (crabgrass; [5]): 0
Crabgrass plant response rating (crabgrass; [6]): 0
Plant response rating (0 to 10; 0 is no effect, 10 is complete control), Crabgrass (crabgrass; Rate 250 g/ha, Postemergence): 1
Crabgrass plant response rating (crabgrass; [7]): 3
